{"source": "patent US12371411B2", "about": "“Water and thermal treatment of purified 2,5-furandicarboxylic acid” (Furanix Technologies B.V., priority 2019, dated 2025)", "experiment": "Solubility of FDCA for a given temperature and solvent", "format": "physicochemical", "conditions": "for Solubility at T, wt % in solvent / Solubility at temp., wt % in solvent: estimated FDCA solubility", "from_the_text": "The skilled person can adjust the thermal treatment conditions to the required degree of dissolution, wherein the following table can be used that lists values for the solubility of FDCA at a given temperature depending on the solvent composition employed. […] Intermediate values can be obtained by interpolation.\nFor a better understanding, the estimated FDCA solubility in the given solvent at the process temperature is provided as well.", "data": [{"smiles": "O=C(O)c1ccc(C(=O)O)o1", "note": "[FDCA, 2,5-Furandicarboxylic acid]", "values": [{"measurement": "Solubility of FDCA", "setting": "HAc:Water 0:100 by weight, 140° C.", "result": 7.0, "unit": "wt %"}, {"measurement": "Solubility of FDCA", "setting": "HAc:Water 0:100 by weight, 150° C.", "result": 9.2, "unit": "wt %"}, {"measurement": "Solubility of FDCA", "setting": "HAc:Water 0:100 by weight, 160° C.", "result": 11.7, "unit": "wt %"}, {"measurement": "Solubility of FDCA", "setting": "HAc:Water 0:100 by weight, 170° C.", "result": 14.8, "unit": "wt %"}, {"measurement": "Solubility of FDCA", "setting": "HAc:Water 0:100 by weight, 180° C.", "result": 18.4, "unit": "wt %"}, {"measurement": "Solubility of FDCA", "setting": "HAc:Water 0:100 by weight, 190° C.", "result": 22.4, "unit": "wt %"}, {"measurement": "Solubility of FDCA", "setting": "HAc:Water 0:100 by weight, 200° C.", "result": 26.8, "unit": "wt %"}, {"measurement": "Solubility of FDCA", "setting": "HAc:Water 10:90 by weight, 140° C.", "result": 7.7, "unit": "wt %"}, {"measurement": "Solubility of FDCA", "setting": "HAc:Water 10:90 by weight, 150° C.", "result": 9.9, "unit": "wt %"}, {"measurement": "Solubility of FDCA", "setting": "HAc:Water 10:90 by weight, 160° C.", "result": 12.6, "unit": "wt %"}, {"measurement": "Solubility of FDCA", "setting": "HAc:Water 10:90 by weight, 170° C.", "result": 15.6, "unit": "wt %"}, {"measurement": "Solubility of FDCA", "setting": "HAc:Water 10:90 by weight, 180° C.", "result": 19.2, "unit": "wt %"}, {"measurement": "Solubility of FDCA", "setting": "HAc:Water 10:90 by weight, 190° C.", "result": 23.1, "unit": "wt %"}, {"measurement": "Solubility of FDCA", "setting": "HAc:Water 10:90 by weight, 200° C.", "result": 27.4, "unit": "wt %"}, {"measurement": "Solubility of FDCA", "setting": "HAc:Water 20:80 by weight, 140° C.", "result": 8.3, "unit": "wt %"}, {"measurement": "Solubility of FDCA", "setting": "HAc:Water 20:80 by weight, 150° C.", "result": 10.6, "unit": "wt %"}, {"measurement": "Solubility of FDCA", "setting": "HAc:Water 20:80 by weight, 160° C.", "result": 13.3, "unit": "wt %"}, {"measurement": "Solubility of FDCA", "setting": "HAc:Water 20:80 by weight, 170° C.", "result": 16.3, "unit": "wt %"}, {"measurement": "Solubility of FDCA", "setting": "HAc:Water 20:80 by weight, 180° C.", "result": 19.8, "unit": "wt %"}, {"measurement": "Solubility of FDCA", "setting": "HAc:Water 20:80 by weight, 190° C.", "result": 23.7, "unit": "wt %"}, {"measurement": "Solubility of FDCA", "setting": "HAc:Water 20:80 by weight, 200° C.", "result": 27.8, "unit": "wt %"}, {"measurement": "Solubility of FDCA", "setting": "HAc:Water 30:70 by weight, 140° C.", "result": 8.9, "unit": "wt %"}, {"measurement": "Solubility of FDCA", "setting": "HAc:Water 30:70 by weight, 150° C.", "result": 11.1, "unit": "wt %"}, {"measurement": "Solubility of FDCA", "setting": "HAc:Water 30:70 by weight, 160° C.", "result": 13.8, "unit": "wt %"}, {"measurement": "Solubility of FDCA", "setting": "HAc:Water 30:70 by weight, 170° C.", "result": 16.8, "unit": "wt %"}, {"measurement": "Solubility of FDCA", "setting": "HAc:Water 30:70 by weight, 180° C.", "result": 20.1, "unit": "wt %"}, {"measurement": "Solubility of FDCA", "setting": "HAc:Water 30:70 by weight, 190° C.", "result": 23.8, "unit": "wt %"}, {"measurement": "Solubility of FDCA", "setting": "HAc:Water 30:70 by weight, 200° C.", "result": 27.8, "unit": "wt %"}, {"measurement": "Solubility of FDCA", "setting": "HAc:Water 40:60 by weight, 140° C.", "result": 9.1, "unit": "wt %"}, {"measurement": "Solubility of FDCA", "setting": "HAc:Water 40:60 by weight, 150° C.", "result": 11.3, "unit": "wt %"}, {"measurement": "Solubility of FDCA", "setting": "HAc:Water 40:60 by weight, 160° C.", "result": 13.9, "unit": "wt %"}, {"measurement": "Solubility of FDCA", "setting": "HAc:Water 40:60 by weight, 170° C.", "result": 16.7, "unit": "wt %"}, {"measurement": "Solubility of FDCA", "setting": "HAc:Water 40:60 by weight, 180° C.", "result": 19.9, "unit": "wt %"}, {"measurement": "Solubility of FDCA", "setting": "HAc:Water 40:60 by weight, 190° C.", "result": 23.4, "unit": "wt %"}, {"measurement": "Solubility of FDCA", "setting": "HAc:Water 40:60 by weight, 200° C.", "result": 27.1, "unit": "wt %"}, {"measurement": "Solubility of FDCA", "setting": "HAc:Water 50:50 by weight, 140° C.", "result": 9.0, "unit": "wt %"}, {"measurement": "Solubility of FDCA", "setting": "HAc:Water 50:50 by weight, 150° C.", "result": 11.0, "unit": "wt %"}, {"measurement": "Solubility of FDCA", "setting": "HAc:Water 50:50 by weight, 160° C.", "result": 13.4, "unit": "wt %"}, {"measurement": "Solubility of FDCA", "setting": "HAc:Water 50:50 by weight, 170° C.", "result": 16.0, "unit": "wt %"}, {"measurement": "Solubility of FDCA", "setting": "HAc:Water 50:50 by weight, 180° C.", "result": 19.0, "unit": "wt %"}, {"measurement": "Solubility of FDCA", "setting": "HAc:Water 50:50 by weight, 190° C.", "result": 22.1, "unit": "wt %"}, {"measurement": "Solubility of FDCA", "setting": "HAc:Water 50:50 by weight, 200° C.", "result": 25.6, "unit": "wt %"}, {"measurement": "Solubility of FDCA", "setting": "HAc:Water 60:40 by weight, 140° C.", "result": 8.2, "unit": "wt %"}, {"measurement": "Solubility of FDCA", "setting": "HAc:Water 60:40 by weight, 150° C.", "result": 10.0, "unit": "wt %"}, {"measurement": "Solubility of FDCA", "setting": "HAc:Water 60:40 by weight, 160° C.", "result": 12.1, "unit": "wt %"}, {"measurement": "Solubility of FDCA", "setting": "HAc:Water 60:40 by weight, 170° C.", "result": 14.5, "unit": "wt %"}, {"measurement": "Solubility of FDCA", "setting": "HAc:Water 60:40 by weight, 180° C.", "result": 17.0, "unit": "wt %"}, {"measurement": "Solubility of FDCA", "setting": "HAc:Water 60:40 by weight, 190° C.", "result": 19.9, "unit": "wt %"}, {"measurement": "Solubility of FDCA", "setting": "HAc:Water 60:40 by weight, 200° C.", "result": 22.9, "unit": "wt %"}, {"measurement": "Solubility of FDCA", "setting": "HAc:Water 70:30 by weight, 140° C.", "result": 6.8, "unit": "wt %"}, {"measurement": "Solubility of FDCA", "setting": "HAc:Water 70:30 by weight, 150° C.", "result": 8.3, "unit": "wt %"}, {"measurement": "Solubility of FDCA", "setting": "HAc:Water 70:30 by weight, 160° C.", "result": 10.0, "unit": "wt %"}, {"measurement": "Solubility of FDCA", "setting": "HAc:Water 70:30 by weight, 170° C.", "result": 12.0, "unit": "wt %"}, {"measurement": "Solubility of FDCA", "setting": "HAc:Water 70:30 by weight, 180° C.", "result": 14.2, "unit": "wt %"}, {"measurement": "Solubility of FDCA", "setting": "HAc:Water 70:30 by weight, 190° C.", "result": 16.6, "unit": "wt %"}, {"measurement": "Solubility of FDCA", "setting": "HAc:Water 70:30 by weight, 200° C.", "result": 19.2, "unit": "wt %"}, {"measurement": "Solubility of FDCA", "setting": "HAc:Water 80:20 by weight, 140° C.", "result": 4.9, "unit": "wt %"}, {"measurement": "Solubility of FDCA", "setting": "HAc:Water 80:20 by weight, 150° C.", "result": 6.1, "unit": "wt %"}, {"measurement": "Solubility of FDCA", "setting": "HAc:Water 80:20 by weight, 160° C.", "result": 7.5, "unit": "wt %"}, {"measurement": "Solubility of FDCA", "setting": "HAc:Water 80:20 by weight, 170° C.", "result": 9.1, "unit": "wt %"}, {"measurement": "Solubility of FDCA", "setting": "HAc:Water 80:20 by weight, 180° C.", "result": 10.9, "unit": "wt %"}, {"measurement": "Solubility of FDCA", "setting": "HAc:Water 80:20 by weight, 190° C.", "result": 12.9, "unit": "wt %"}, {"measurement": "Solubility of FDCA", "setting": "HAc:Water 80:20 by weight, 200° C.", "result": 15.1, "unit": "wt %"}, {"measurement": "Solubility of FDCA", "setting": "HAc:Water 90:10 by weight, 140° C.", "result": 3.5, "unit": "wt %"}, {"measurement": "Solubility of FDCA", "setting": "HAc:Water 90:10 by weight, 150° C.", "result": 4.5, "unit": "wt %"}, {"measurement": "Solubility of FDCA", "setting": "HAc:Water 90:10 by weight, 160° C.", "result": 5.6, "unit": "wt %"}, {"measurement": "Solubility of FDCA", "setting": "HAc:Water 90:10 by weight, 170° C.", "result": 7.0, "unit": "wt %"}, {"measurement": "Solubility of FDCA", "setting": "HAc:Water 90:10 by weight, 180° C.", "result": 8.7, "unit": "wt %"}, {"measurement": "Solubility of FDCA", "setting": "HAc:Water 90:10 by weight, 190° C.", "result": 10.6, "unit": "wt %"}, {"measurement": "Solubility of FDCA", "setting": "HAc:Water 90:10 by weight, 200° C.", "result": 12.8, "unit": "wt %"}, {"measurement": "Solubility of FDCA", "setting": "HAc:Water 95:5 by weight, 140° C.", "result": 3.3, "unit": "wt %"}, {"measurement": "Solubility of FDCA", "setting": "HAc:Water 95:5 by weight, 150° C.", "result": 4.4, "unit": "wt %"}, {"measurement": "Solubility of FDCA", "setting": "HAc:Water 95:5 by weight, 160° C.", "result": 5.7, "unit": "wt %"}, {"measurement": "Solubility of FDCA", "setting": "HAc:Water 95:5 by weight, 170° C.", "result": 7.3, "unit": "wt %"}, {"measurement": "Solubility of FDCA", "setting": "HAc:Water 95:5 by weight, 180° C.", "result": 9.3, "unit": "wt %"}, {"measurement": "Solubility of FDCA", "setting": "HAc:Water 95:5 by weight, 190° C.", "result": 11.6, "unit": "wt %"}, {"measurement": "Solubility of FDCA", "setting": "HAc:Water 95:5 by weight, 200° C.", "result": 14.3, "unit": "wt %"}, {"measurement": "Solubility at T, wt % in solvent", "setting": "HAc:Water 0:100, 130° C. (test Comp. 4)", "result": 5.3, "unit": "wt % in solvent"}, {"measurement": "Solubility at temp., wt % in solvent", "setting": "HAc:Water 0:100, 180° C. (test Ex. 3)", "result": 18.4, "unit": "wt % in solvent"}, {"measurement": "Solubility at T, wt % in solvent", "setting": "HAc:Water 70:30, 125° C. (test Comp. 3)", "result": 6.1, "unit": "wt % in solvent"}, {"measurement": "Solubility at temp., wt % in solvent", "setting": "HAc:Water 70:30, 180° C. (tests Ex. 1, Ex. 2)", "result": 14.2, "unit": "wt % in solvent"}]}]}
